Consider 11 compounds from ChEMBL document CHEMBL1201862, “PubChem BioAssay data set” (2004).

Some test systems named below: UACC-257; TK-10; SF-268; HL-60; OVCAR-4; U-251; A498; OVCAR-3; SN12C; HOP-92; SF-539; HCT-15; SK-OV-3; Malme-3M; HCT-116; SNB-75; M14; NCI/ADR-RES; MDA-N.
Assay in all cases: NCI tumour cell line growth inhibition, 48 h

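Five concentrations, 48 hours, 96-well plates. The concentration for 50% growth inhibition is given as GI50.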 Active and inactive are the calls of the source. Rule as the data show it: active = GI50 up to about 1.1 µM and inactive = higher. *1 amine or outer side, *2 acyl side, *3 side chain or, on linkers, in order; H or OH if unused. Where a SMILES comes first, the peptide text is derived from it. The star is where a group is joined. γGlu = O=C(O)[CH](CCC(=O)[*:2])N[*:1]; NHOH = ON*

On to `OC(Cn1cncn1)(Cn1cncn1)c1ccc(Cl)cc1Cl`, for which the GI50 with UACC-257, in the experiment on TK-10, in the experiment with SF-268, in the experiment with HL-60, with OVCAR-4 and in the experiment on U-251 was > 100 µM (inactive) each time. Moreover, the GI50 was > 100 µM (inactive) with A498; > 100 µM (inactive) with OVCAR-3; > 100 µM (inactive) in the experiment on SN12C; > 100 µM (inactive) in the experiment on HOP-92; > 100 µM (inactive) in the experiment with SF-539; over 100 µM in the experiment with HCT-15. In addition, the GI50 in the experiment with SK-OV-3, in the experiment on Malme-3M, with HCT-116, in the experiment with SNB-75 and in the experiment on M14 was > 100 µM (inactive) each time.

Take `COc1cc2c(cc1OC)[C@@H](C(O)c1ccccc1)NCC2` (some centres undefined): the GI50 in the experiment on UACC-257, with TK-10, with SF-268, in the experiment on HL-60, with OVCAR-4 and in the experiment on U-251 was > 100 µM (inactive) in each case. The GI50 in the experiment with A498 was > 100 µM (inactive); with OVCAR-3, > 100 µM (inactive); with SN12C, > 100 µM (inactive); in the experiment on HOP-92, > 100 µM (inactive); in the experiment with SF-539 it was > 100 µM (inactive); in the experiment with HCT-15, over 100 µM. Besides, the GI50 in the experiment with SK-OV-3 was > 100 µM (inactive); with Malme-3M, > 100 µM (inactive); with HCT-116 it was > 100 µM (inactive); in the experiment with SNB-75 it was 54.6 µM (inactive); in the experiment with M14, > 100 µM (inactive).

Consider `CCCCCOc1ccc(/C=N\c2ccc(-c3ccc(/N=C\c4ccc(OCCCCC)cc4)c(OC)c3)cc2OC)cc1`, for which the GI50 with UACC-257 is > 100 µM (inactive); with SF-268, > 100 µM (inactive); with HL-60, > 100 µM (inactive); in the experiment with OVCAR-4 it was > 31.6 µM (inactive); with U-251 it was > 100 µM (inactive); in the experiment on A498, > 100 µM (inactive). Moreover, the GI50 was > 66.2 µM (inactive) in the experiment with OVCAR-3; > 100 µM (inactive) in the experiment with SN12C; > 100 µM (inactive) with NCI/ADR-RES; > 100 µM (inactive) in the experiment with HOP-92; > 100 µM (inactive) in the experiment on SF-539; over 100 µM in the experiment on HCT-15. For the same compound, the GI50 is > 100 µM (inactive) in the experiment with SK-OV-3, > 100 µM (inactive) in the experiment with Malme-3M, > 100 µM (inactive) with HCT-116 and 46.9 µM (inactive) in the experiment on SNB-75.

As for `CC[C@@]1(O)C[C@H](OC2CC(N(C)C)C(OC3CC(O)C(OC4CC(O)C(O)C(C)O4)C(C)O3)C(C)O2)c2c(cc3c(c2O)C(=O)c2c(O)ccc(O)c2C3=O)[C@H]1C(=O)OC` (some centres undefined), the GI50 with UACC-257 was 0.0255 µM (active); with SF-268, 0.0263 µM (active); with HL-60 it was 0.0448 µM (active); with OVCAR-4, 0.0371 µM (active); in the experiment with U-251, 0.084 µM (active); in the experiment with A498 it was 0.0146 µM (active). Moreover, the GI50 is 0.0321 µM (active) with OVCAR-3; 0.0148 µM (active) with SN12C; 0.625 µM (active) with NCI/ADR-RES; 0.0902 µM (active) in the experiment on HOP-92; < 0.0214 µM (active) in the experiment on SF-539; 0.151 µM in the experiment with HCT-15. Also, the GI50 is 0.0811 µM (active) in the experiment with SK-OV-3, 0.0478 µM (active) in the experiment on Malme-3M, 0.00507 µM (active) in the experiment with HCT-116 and 0.0548 µM (active) with SNB-75.

In the case of `O=P1(O)C=CC2(CCCC2)O1`, the GI50 in the experiment with UACC-257, with TK-10, in the experiment with SF-268, with HL-60, in the experiment with OVCAR-4 and with U-251 was > 100 µM (inactive) throughout. Moreover, the GI50 with A498, in the experiment on OVCAR-3, in the experiment on SN12C, in the experiment on NCI/ADR-RES, in the experiment with HOP-92 and in the experiment on SF-539 was > 100 µM (inactive) in each case. The GI50 with HCT-15 was over 100 µM; in the experiment with MDA-N, > 100 µM (inactive); with SK-OV-3, > 100 µM (inactive); in the experiment with Malme-3M, > 100 µM (inactive); with HCT-116, > 100 µM (inactive); with SNB-75, > 100 µM (inactive). Also, the GI50 in the experiment on M14 was > 100 µM (inactive).

Turning to `COc1ccc(NN=C2C(=O)CCC2=O)cc1`, the GI50 in the experiment on UACC-257 is 52.4 µM (inactive); in the experiment on TK-10, > 100 µM (inactive); in the experiment with SF-268 it was > 100 µM (inactive); with HL-60 it was > 100 µM (inactive); with OVCAR-4 it was 37.5 µM (inactive); with U-251 it was > 100 µM (inactive). For the same compound, the GI50 in the experiment with A498 is 55 µM (inactive); with OVCAR-3 it was > 100 µM (inactive); in the experiment on SN12C, > 100 µM (inactive); with HOP-92, > 100 µM (inactive); in the experiment on SF-539 it was > 100 µM (inactive); in the experiment with HCT-15, over 100 µM. Further, the GI50 in the experiment with SK-OV-3 is > 100 µM (inactive); in the experiment on Malme-3M, > 100 µM (inactive); in the experiment on HCT-116 it was > 100 µM (inactive); with SNB-75 it was > 100 µM (inactive); in the experiment with M14, 57.3 µM (inactive).

For `CC(=O)Nc1ccc(/C=C/c2ccc(NC(=O)Nc3ccc(/C=C/c4ccc(NC(C)=O)cc4S(=O)(=O)O)c(S(=O)(=O)O)c3)cc2S(=O)(=O)O)c(S(=O)(=O)O)c1`, the GI50 in the experiment with UACC-257 was > 100 µM (inactive); with SF-268 it was > 100 µM (inactive); in the experiment with HL-60, 60.1 µM (inactive); in the experiment on OVCAR-4 it was > 100 µM (inactive); in the experiment on U-251, > 100 µM (inactive); with A498, > 100 µM (inactive). The GI50 was > 100 µM (inactive) in the experiment on OVCAR-3; > 100 µM (inactive) in the experiment with SN12C; > 100 µM (inactive) in the experiment on NCI/ADR-RES; 43.1 µM (inactive) with HOP-92; > 100 µM (inactive) in the experiment on SF-539; 45.8 µM in the experiment on HCT-15. Further, the GI50 was > 100 µM (inactive) with SK-OV-3, > 100 µM (inactive) in the experiment on Malme-3M, > 100 µM (inactive) in the experiment on HCT-116 and 53.8 µM (inactive) in the experiment on SNB-75.

`CC(C(=O)OCc1ccccc1)N(Cc1ccccc1)Cc1ccccc1` (centres undefined): the GI50 with UACC-257 is 33.7 µM (inactive); with TK-10, > 100 µM (inactive); with SF-268, > 100 µM (inactive); in the experiment with HL-60, 21 µM (inactive); in the experiment with OVCAR-4 it was > 100 µM (inactive); in the experiment on U-251, 98.4 µM (inactive). In addition, the GI50 is > 100 µM (inactive) with A498; > 100 µM (inactive) in the experiment on OVCAR-3; > 100 µM (inactive) with SN12C; > 100 µM (inactive) in the experiment on HOP-92; > 100 µM (inactive) in the experiment with SF-539; over 100 µM with HCT-15. In addition, the GI50 was > 100 µM (inactive) in the experiment on SK-OV-3; 51.2 µM (inactive) in the experiment on Malme-3M; > 100 µM (inactive) in the experiment on HCT-116; 42.7 µM (inactive) with SNB-75; > 100 µM (inactive) in the experiment with M14.

As for `C[B@@-]1(c2ccc(C(F)(F)F)cc2)N[C@@H](Cc2ccccc2)C(=O)O1`, the GI50 in the experiment with UACC-257 is > 100 µM (inactive); in the experiment on TK-10 it was > 100 µM (inactive); in the experiment with SF-268, > 100 µM (inactive); in the experiment with HL-60, 31.8 µM (inactive); in the experiment with OVCAR-4 it was > 100 µM (inactive); in the experiment on U-251, > 100 µM (inactive). The GI50 in the experiment with A498 is > 100 µM (inactive); with OVCAR-3, > 100 µM (inactive); with SN12C, > 100 µM (inactive); in the experiment on NCI/ADR-RES it was > 100 µM (inactive); in the experiment with HOP-92, 11.9 µM (inactive); in the experiment with HCT-15 it was over 100 µM. Besides, the GI50 with MDA-N is > 100 µM (inactive); with SK-OV-3, > 100 µM (inactive); with Malme-3M, > 100 µM (inactive); with HCT-116, > 100 µM (inactive); in the experiment with SNB-75, 31.6 µM (inactive); in the experiment with M14, > 100 µM (inactive).

On to `NC(CCC(=O)NC(CCC(=O)NO)C(=O)NCC(=O)O)C(=O)O` (centres undefined) (γGlu-Glu(NHOH)-Gly-OH; configuration not given here), for which the GI50 with UACC-257, with TK-10, with SF-268, in the experiment with HL-60, in the experiment on OVCAR-4 and in the experiment on U-251 was > 100 µM (inactive) throughout. Also, the GI50 with A498, with OVCAR-3, in the experiment on SN12C, in the experiment with NCI/ADR-RES, in the experiment on HOP-92 and in the experiment with SF-539 was > 100 µM (inactive) throughout. Also, the GI50 in the experiment on HCT-15 is over 100 µM; in the experiment on MDA-N, > 100 µM (inactive); in the experiment with SK-OV-3, > 100 µM (inactive); in the experiment on HCT-116, > 100 µM (inactive); in the experiment on SNB-75, > 100 µM (inactive); in the experiment with M14, > 100 µM (inactive).

`COc1cc(O)c2c(=O)c(O)c(-c3ccc(O)c(OC)c3)oc2c1` [RHAMNAZIN]: the GI50 is > 100 µM (inactive) in the experiment on UACC-257; > 100 µM (inactive) in the experiment with TK-10; 1.89 µM (inactive) with SF-268; 4.11 µM (inactive) in the experiment on HL-60; 2.48 µM (inactive) with OVCAR-4; 2.19 µM (inactive) in the experiment with U-251. Moreover, the GI50 is 2.73 µM (inactive) in the experiment with A498; 2.52 µM (inactive) with OVCAR-3; > 100 µM (inactive) in the experiment with SN12C; 5.05 µM (inactive) in the experiment with NCI/ADR-RES; 0.838 µM (active) with HOP-92; 3.7 µM (inactive) in the experiment with SF-539. Besides, the GI50 with HCT-15 is over 19.6 µM; with MDA-N it was 4.8 µM (inactive); in the experiment on Malme-3M, > 100 µM (inactive); in the experiment on HCT-116, 5.15 µM (inactive); in the experiment with SNB-75, 2.28 µM (inactive); with M14, 4.66 µM (inactive).
